“And” between values parts separate entries of the source, which are not always exact repeats. Equal values may be shown once. Read-outs that look alike come from different tables or passages of the source.
Key:
[1] = test system: pAkt, Bcl-xL, Survivin, and FOXO3; assay: Western blot of TRIB2 downstream targets in LNCaP-ENR cells; type: cell-based, human; conditions: 12 μM, 24 hours
Experimental: LNCaP-ENR cells were treated with varying doses (4 μM, 8 μM, or 12 μM) of DCV for 24 hours. Effects on TRIB2 protein levels and its downstream targets (e.g., pAkt, Bcl-xL, Survivin, and FOXO3) were analyzed by Western blot. GAPDH was used as loading control. Protein levels of TRIB2, pAKT (S473), Bcl-xL, and Survivin were reduced in cells treated with 12 μM of DCV compared to control-treated cells (FIG. 3A). Levels of FOXO3 protein were increased at 12 μM of DCV treatment compared to control treatment. This was expected, as FOXO3 level is known to be decreased by Trib2. These effects on cellular protein levels were DCV concentration-dependent, with the most pronounced effects observed at the highest concentration tested (12 μM).

LNCaP-ENR cells [2] = assay: MTS/PES cell viability assay, ERPC cells; type: cell-based, human
Experimental: Plates were incubated for 72 hours at 37° C. in a CO2 incubator. Cell viability was measured by MTS/PES cell titer assay (Promega Corp., Madison, WI).

[3] = test system: LNCaP-ENR and MR49F ERPC cells; assay: In vitro invasion through extracellular matrix; type: cell-based, human; conditions: LNCaP-ENR and MR49F ERPC cells (data not shown)
LNCaP-ENR cells [4] = assay: Apoptosis by Annexin V binding, flow cytometry; type: cell-based, human; conditions: LNCaP-ENR cells, 8 μM, 24 hours, flow cytometry
Experimental: To test DCV effects on cancer cell apoptosis, LNCaP-ENR cells were treated with 8 μM DCV for 24 hours and analyzed by flow cytometry. Treatment with DCV indicated increased Annexin V binding, a read-out for apoptosis (FIG. 3C).

LNCaP-ENR cells [5] = assay: Cell cycle distribution; type: cell-based, human; conditions: ERPC cells; FIG. 16 at 8 μM
Trib2-OE cells = assay: Enzalutamide sensitivity of Trib2-overexpressing prostate cancer cells; type: cell-based, human; conditions: Trib2-OE cells, DCV 6 μM
Excerpt: Prostate cancer cells were transfected with full length human gene to overexpress Trib2 (FIG. 18). […] Trib2 siRNA was used in parallel experiments as a positive control.

[6] = test system: NCI-H226, SK-MES-1, NCI-H2228 and NCI-H596 lung cancer cell lines; assay: 72-hour cell viability assay in lung cancer cell lines; type: cell-based, human
[7] = test system: ERPC tumors (LNCaP-ENR cells)
Experimental: BALB/c nude mice were subcutaneously injected with the LNCaP-ENR cells (1×10^6 cells per mouse) to develop tumors. Once the tumors reached a size of ~100 cubic mm, the mice were treated with 30 mg/kg/day DCV or a solution of DMSO:cremophor:PBS at 1:1:8 ratio, orally for four weeks (n=3). Tumor size and body weights were measured once per week. Tumor volumes were calculated using the following formula:
[formula] • Wherein “TV” means tumor volume; • “a” is the long diameter of a tumor; and • “b” is the short diameter of a tumor.
Tumor samples were collected at 4 weeks post-treatment, and TRIB2 protein levels in the tumors were determined by immunohistochemistry (IHC) using monoclonal anti-Trib2 antibody (Santa Cruz Bio, Santa Cruz, CA; Cat. No.: 100878) at 1:100.

[8] = cited from earlier work
[9] = cited from earlier work; remark: listed apart in the source
[10] = cited from earlier work; remark: listed apart in the source
[11] = molecular target: T1, Trib2-Luciferase (Luc-Trib2) fusion (Homo sapiens, UniProt Q92519); assay: cell-based; conditions: HFF
T1 sequence (Q92519 with tags, fused parts or gaps): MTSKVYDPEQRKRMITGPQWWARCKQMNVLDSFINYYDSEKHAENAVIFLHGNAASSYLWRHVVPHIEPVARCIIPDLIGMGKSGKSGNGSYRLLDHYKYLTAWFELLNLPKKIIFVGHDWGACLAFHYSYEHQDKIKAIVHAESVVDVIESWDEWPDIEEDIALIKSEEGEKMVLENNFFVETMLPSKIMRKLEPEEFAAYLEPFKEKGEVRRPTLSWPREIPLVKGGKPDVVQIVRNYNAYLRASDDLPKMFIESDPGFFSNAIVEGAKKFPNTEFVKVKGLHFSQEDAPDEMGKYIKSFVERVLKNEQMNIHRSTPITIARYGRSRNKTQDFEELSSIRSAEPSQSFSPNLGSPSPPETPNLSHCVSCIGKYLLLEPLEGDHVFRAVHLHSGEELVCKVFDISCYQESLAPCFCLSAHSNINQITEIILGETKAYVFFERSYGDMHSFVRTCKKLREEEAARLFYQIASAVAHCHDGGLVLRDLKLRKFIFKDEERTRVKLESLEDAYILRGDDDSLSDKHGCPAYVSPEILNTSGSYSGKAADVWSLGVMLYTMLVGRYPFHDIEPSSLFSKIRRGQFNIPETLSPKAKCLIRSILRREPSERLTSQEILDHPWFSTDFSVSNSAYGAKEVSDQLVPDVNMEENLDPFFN

[12] = in vivo; cited from earlier work

COC(=O)N[C@H](C(=O)N1CCC[C@H]1c1nc(-c2ccc(-c3ccc(-c4c[nH]c([C@@H]5CCCN5C(=O)[C@@H](NC(=O)OC)C(C)C)n4)cc3)cc2)c[nH]1)C(C)C [Daclatasvir, 4,4′-bis[2-((2S)-1-{(2S)-2-[(methoxycarbonyl)amino]-3-methylbutanoyl}-2-pyrrolidinyl)-1H-imidazol-4-yl]-1,1′-biphenyl]
Levels of FOXO3 protein ([1]; vs control treatment): increased
Protein levels of pAKT (S473), Bcl-xL, and Survivin ([1]; vs control-treated cells): reduced
Cell viability (LNCaP-ENR cells [2]; LNCaP-ENR cells, varying doses, 72 hours, MTS/PES): effectively decreased
effective concentration in the pre-clinical prostate cancer modeling (LNCaP-ENR cells [2]; target steady state plasma concentration of planned trial): 4 µM
in vitro invasion through extracellular matrix [3]: dramatically decreases
Annexin V binding (LNCaP-ENR cells [4]): increased
cell cycle progression (LNCaP-ENR cells [5]): arresting them at G0/G1 phase
re-sensitization of resistant cells to enzalutamide (Trib2-OE cells): re-sensitizes resistant cells to enzalutamide
killing of lung cancer cells [6]: effectively kills
Tumor volumes ([7]; 30 mg/kg/day orally for four weeks, vs vehicle-treated animals): significantly reduced
TRIB2 protein levels in tumors by IHC ([7]; 30 mg/kg/day orally, 4 weeks): reduced
uptake rate ([8]; delivered orally): about 67%
protein bound ([8]; in vivo): ~ 99%
half-life ([8]; mammalian hosts): about 15 hours
tolerability ([8]; mammalian hosts): very well tolerated
tolerability ([9]; 100 mg po daily): well tolerated
median peak plasma concentration ([9]; after one dose of 60 mg, listed as DCV): ~ 2 μg/ml and 2.5 μM
mean terminal half-life ([9]; in vivo): 12 to 15 h
time to peak plasma concentrations after dosing ([9]; in vivo): 1 to 2 h
time to steady state levels ([9]; in vivo): after three days of administration
solubility in aqueous solvents [10]: freely soluble
activity at 10 µM ([11]; read-out: Luciferase activity (%)): 28%
inhibition at 10 µM ([11]; read-out: inhibition of Trib2-luciferase activity): > 70%
maximum tolerated dose (MTD) [12]: > 200 mg/kg/day

From patent US12721838B2 (Henry Ford Health System, priority 2020, dated 2026)
